# Legend:
# 5-lipoxygenase = target: T1, 5-lipoxygenase (Rattus norvegicus, UniProt P12527); test: In vitro inhibition of 5-lipoxygenase (20,000xg supernatant from homogenized RBL-1 cells); format: biochemical; conditions: read-out: IC50 (concentrations producing 50% enzyme inhibition)
# T1 construct: 20,000xg supernatant from homogenized RBL-1 cells; endogenous in cells; host or cells: RBL-1 cells (20,000xg supernatant of homogenate)
# T1 sequence (P12527 1-673): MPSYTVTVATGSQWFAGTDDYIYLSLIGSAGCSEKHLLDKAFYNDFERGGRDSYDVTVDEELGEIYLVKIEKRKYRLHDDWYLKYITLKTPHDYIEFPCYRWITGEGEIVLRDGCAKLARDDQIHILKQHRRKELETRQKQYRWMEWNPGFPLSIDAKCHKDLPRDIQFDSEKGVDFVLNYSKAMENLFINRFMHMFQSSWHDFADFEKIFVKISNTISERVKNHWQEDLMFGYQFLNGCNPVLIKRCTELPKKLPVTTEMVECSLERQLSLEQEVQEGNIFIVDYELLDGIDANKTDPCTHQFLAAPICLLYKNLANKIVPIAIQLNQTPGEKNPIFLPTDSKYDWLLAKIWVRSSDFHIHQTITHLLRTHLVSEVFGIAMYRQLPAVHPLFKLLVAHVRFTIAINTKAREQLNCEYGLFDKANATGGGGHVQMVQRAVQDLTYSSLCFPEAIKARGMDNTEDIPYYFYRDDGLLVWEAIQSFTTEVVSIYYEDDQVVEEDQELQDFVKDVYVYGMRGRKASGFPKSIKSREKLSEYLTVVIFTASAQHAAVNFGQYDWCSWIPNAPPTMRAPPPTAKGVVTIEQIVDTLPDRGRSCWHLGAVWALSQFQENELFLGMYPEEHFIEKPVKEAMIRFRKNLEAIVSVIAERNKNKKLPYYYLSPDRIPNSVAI
# Procedure: The In vitro effect of the compounds of the present invention on 5-lipoxygenase activity was evaluated using the 20,000xg supernatant from homogenized RBL-1 cells in a manner similar to that described by Dyer and coworkers in Fed. Proc., Fed. Am. Soc. Exp. Biol. 43:[…] (1984). IC50 values (i.e., concentrations of the compounds producing 50% enzyme inhibition) were calculated by linear regression analysis of percentage inhibition versus log inhibitor concentration plots.
# leukotriene biosynthesis = test: In vivo inhibition of leukotriene biosynthesis, rat peritoneal anaphylaxis model; conditions: 200 μmol/kg PO (gavage) one hour prior to antigen challenge, peritoneal fluids collected 15 minutes after challenge
# Procedure: The in vivo inhibition of leukotriene biosynthesis by the compounds of the present invention was evaluated in the following manner. The effect of the compounds after oral administration was determined using a rat peritoneal anaphylaxis model in a manner similar to that described by Young and coworkers in Fed. Proc., Fed. Am. Soc. Exp. Biol. 44:1185 (1985). According to this model rats were injected intraperitoneally (IP) with rabbit antibody to bovine serum albumin (BSA) and three hours later injected IP with BSA to induce an antigen-antibody response. Rats were sacrificed 15 minutes after this challenge and the peritoneal fluids were collected and analyzed for leukotriene levels. Test compounds were administered by gavage (PO) one hour prior to the antigen challenge. Percent inhibition values were determined by comparing the treatment group to the mean of the control group.
Compound,IC50 (5-lipoxygenase),In vivo Inhibition of Leukotriene Biosynthesis (leukotriene biosynthesis)
"CC(C)Cc1ccc(C(C)N(O)C(N)=S)cc1 (stereo not drawn) [Example 29, N-hydroxy-N-[1-(4-(2'-methylpropyl)phenyl)ethyl] thiourea]",< 400 nM,–
"CNC(=O)N(O)CCc1c(C)n(C(=O)c2ccc(Cl)cc2)c2ccc(OC)cc12 [Example 32, N-hydroxy-N-[2-(N-(4-chlorobenzoyl)-5-methoxy-2-methyl-[1H]-indol-3-yl)ethyl]-N'-methyl urea]",200 nM,42%
"COc1ccc2cc(C(C)N(O)C(N)=O)ccc2c1 (stereo not drawn) [Example 2, N-hydroxy-N-1-(6-methoxynaphthalen-2-yl)ethyl urea]",430 nM,66%
"CNC(=O)N(O)C(C)c1ccc(CC(C)C)cc1 (stereo not drawn) [Example 3, N'-methyl-N-hydroxy-N-1-(4-(2'-methylpropyl)phenyl)ethyl urea]",700 nM,39%
"CNC(=O)N(O)C(C)c1ccc2cc(OC)ccc2c1 (stereo not drawn) [Example 4, N'-methyl-N-hydroxy-N-1-(6-methoxynaphthalen-2-yl)ethyl urea]",600 nM,–

# The next lines start with results.
IC50 (5-lipoxygenase),Compound,In vivo Inhibition of Leukotriene Biosynthesis (leukotriene biosynthesis)
400 nM,"COc1ccc2c(c1)c(CCN(O)C(N)=O)c(C)n2C(=O)c1ccc(Cl)cc1 [Example 16, N-hydroxy-N-[2-(N-(4-chlorobenzoyl)-5-methoxy-2-methyl-[1H]-indol-3-yl)ethyl] urea]",–
700 nM,"COc1ccc2cc(C(C)N(O)C(C)=O)ccc2c1 (stereo not drawn) [Example 5, N-hydroxy-N-1-(6-methoxynaphthalen-2-yl)ethyl acetamide]",62%
200 nM,"CC(C)Cc1ccc(C(C)CN(O)C(N)=O)cc1 (stereo not drawn) [Example 17, N-hydroxy-N-[2-(4-(2-methylpropyl)phenyl)propyl] urea]",–
200 nM,"CCSC(=O)N(O)C(C)c1ccc(CC(C)C)cc1 (stereo not drawn) [Example 31, N-hydroxy-N-[1-(4-(2'-methylpropyl)phenyl)ethyl] thioethylcarbamate]",–
< 400 nM,"CCOC(=O)N(O)C(C)c1ccc(CC(C)C)cc1 (stereo not drawn) [Example 30, N-hydroxy-N-[1-(4-(2'-methylpropyl)phenyl)ethyl] ethoxycarbamate]",–
640 nM,"CC(C)Cc1ccc(C(C)N(O)C(N)=O)cc1 (stereo not drawn) [Example 1, N-hydroxy-N-[1-(4-(2'-methylpropyl)phenyl)ethyl]urea]",–
